Assays:
Format in all cases: cell-based, human
[1] = test system: MOLT-4 (Leukemia); assay: NCI one dose, MOLT-4; conditions: MOLT-4, 1.00E-5 Molar one dose
Procedure, shortened: (§1)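 Here the NCI sixty-cell human cancer panel served as the test system; after two days (48 h) on compound, remaining cell mass was assessed by sulforhodamine B.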

[2] = test system: RPMI-8226 (Leukemia); assay: NCI one dose, RPMI-8226; conditions: RPMI-8226, 1.00E-5 Molar one dose
Procedure, shortened: as §1

[3] = test system: HOP-62 (Non-Small Cell Lung Cancer); assay: NCI one dose, HOP-62; conditions: HOP-62, 1.00E-5 Molar one dose
Procedure, shortened: as §1

[4] = test system: NCI-H322M (Non-Small Cell Lung Cancer); assay: NCI one dose, NCI-H322M; conditions: 1.00E-5 Molar one dose
Procedure, shortened: as §1

[5] = test system: NCI-H460 (Non-Small Cell Lung Cancer); assay: NCI one dose, NCI-H460; conditions: NCI-H460, 1.00E-5 Molar one dose
Procedure, shortened: (§2)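 Cells of the National Cancer Institute 60-line human cancer screen are treated with test compound for 48 h, then growth is quantified by SRB assay.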

[6] = test system: NCI-H522 non-small cell lung cancer cells; assay: NCI cell proliferation, NCI-H522
Procedure, shortened: as §2

[7] = test system: COLO 205 (Colon Cancer); assay: NCI one dose, COLO 205; conditions: COLO 205, 1.00E-5 Molar one dose
Procedure, shortened: as §1

[8] = test system: HCC-2998 (Colon Cancer); assay: NCI one dose, HCC-2998; conditions: HCC-2998, 1.00E-5 Molar one dose
Procedure, shortened: as §1

[9] = test system: HCT-15 (Colon Cancer); assay: NCI one dose, HCT-15; conditions: HCT-15, 1.00E-5 Molar one dose
Procedure, shortened: as §1

[10] = test system: HT29 (Colon Cancer); assay: NCI one dose, HT29; conditions: HT29, 1.00E-5 Molar one dose
Procedure, shortened: as §1

[11] = test system: KM12 (Colon Cancer); assay: NCI one dose, KM12; conditions: KM12, 1.00E-5 Molar one dose
Procedure, shortened: as §1

[12] = test system: SW-620 (Colon Cancer); assay: NCI one dose, SW-620; conditions: SW-620, 1.00E-5 Molar one dose
Procedure, shortened: as §1

[13] = test system: SF-268 (CNS Cancer); assay: NCI one dose, SF-268; conditions: SF-268, 1.00E-5 Molar one dose
Procedure, shortened: as §1

[14] = test system: SF-295 (CNS Cancer); assay: NCI one dose, SF-295; conditions: SF-295, 1.00E-5 Molar one dose
Procedure, shortened: as §2

[15] = test system: SNB-19 (CNS Cancer); assay: NCI one dose, SNB-19; conditions: SNB-19, 1.00E-5 Molar one dose
Procedure, shortened: as §1

[16] = test system: U251 (CNS Cancer); assay: NCI one dose, U251; conditions: U251, 1.00E-5 Molar one dose
Procedure, shortened: as §1

[17] = test system: MALME-3M (Melanoma); assay: NCI one dose, MALME-3M; conditions: 1.00E-5 Molar one dose
Procedure, shortened: as §2

[18] = test system: M14 (Melanoma); assay: NCI one dose, M14; conditions: M14, 1.00E-5 Molar one dose
Procedure, shortened: as §1

[19] = test system: SK-MEL-2 (Melanoma); assay: NCI one dose, SK-MEL-2; conditions: SK-MEL-2, 1.00E-5 Molar one dose
Procedure, shortened: as §1

[20] = test system: SK-MEL-28 (Melanoma); assay: NCI one dose, SK-MEL-28; conditions: SK-MEL-28, 1.00E-5 Molar one dose
Procedure, shortened: as §1

[21] = test system: UACC-257 melanoma cells; assay: NCI one dose, UACC-257; conditions: UACC-257, 1.00E-5 Molar one dose
Procedure, shortened: as §1

[22] = test system: UACC-62 (Melanoma); assay: NCI one dose, UACC-62; conditions: UACC-62, 1.00E-5 Molar one dose
Procedure, shortened: as §1

[23] = test system: IGROV1 (Ovarian Cancer); assay: NCI one dose, IGROV1; conditions: IGROV1, 1.00E-5 Molar one dose
Procedure, shortened: as §1

[24] = test system: OVCAR-5 (Ovarian Cancer); assay: NCI one dose, OVCAR-5; conditions: OVCAR-5, 1.00E-5 Molar one dose
Procedure, shortened: as §1

[25] = test system: SK-OV-3 (Ovarian Cancer); assay: NCI one dose, SK-OV-3; conditions: SK-OV-3, 1.00E-5 Molar one dose
Procedure, shortened: as §1

[26] = test system: 786-0 (Renal Cancer); assay: NCI one dose, 786-0; conditions: 786-0, 1.00E-5 Molar one dose
Procedure, shortened: as §1

[27] = test system: A498 (Renal Cancer); assay: NCI one dose, A498; conditions: A498, 1.00E-5 Molar one dose
Procedure, shortened: as §1

[28] = test system: ACHN (Renal Cancer); assay: NCI one dose, ACHN; conditions: 1.00E-5 Molar one dose
Procedure, shortened: as §2

[29] = test system: CAKI-1 (Renal Cancer); assay: NCI one dose, CAKI-1; conditions: CAKI-1, 1.00E-5 Molar one dose
Procedure, shortened: as §1

[30] = test system: TK-10 (Renal Cancer); assay: NCI one dose, TK-10; conditions: TK-10, 1.00E-5 Molar one dose
Procedure, shortened: as §1

[31] = test system: PC-3 (Prostate Cancer); assay: NCI one dose, PC-3; conditions: PC-3, 1.00E-5 Molar one dose
Procedure, shortened: as §1

[32] = test system: DU-145 (Prostate Cancer); assay: NCI one dose, DU-145; conditions: DU-145, 1.00E-5 Molar one dose
Procedure, shortened: as §1

[33] = test system: MDA-MB-231/ATCC (Breast Cancer); assay: NCI one dose, MDA-MB-231/ATCC; conditions: 1.00E-5 Molar one dose
Procedure, shortened: as §1

[34] = test system: HS 578T (Breast Cancer); assay: NCI one dose, HS 578T; conditions: 1.00E-5 Molar one dose
Procedure, shortened: as §1

[35] = test system: BT-549 (Breast Cancer); assay: NCI one dose, BT-549; conditions: BT-549, 1.00E-5 Molar one dose
Procedure, shortened: as §1

[36] = test system: T-47D (Breast Cancer); assay: NCI one dose, T-47D; conditions: 1.00E-5 Molar one dose
Procedure, shortened: as §2

[37] = test system: MDA-MB-468 breast cancer cells; assay: NCI one dose, MDA-MB-468; conditions: MDA-MB-468, 1.00E-5 Molar one dose
Procedure, shortened: as §1

COc1cc(CNC(=O)[C@@H]2CS[C@@]3(C)c4ccccc4C(=O)N23)cc(OC)c1OC [4bJ]
Growth Percent [1]: 81.24%
Growth Percent [2]: 90.22%
Growth Percent [3]: 90.09%
Growth Percent [4]: 99.71%
Growth Percent [5]: 105.78%
inhibition at 10 µM ([6]; Homo sapiens, NCI-H522, 10 µM, read-out: % Cancer cell growth Inhibition (NCI-H522)): 31%
Growth Percent ([6]; NCI-H522, 1.00E-5 Molar one dose): 68.76%
Growth Percent [7]: 105.48%
Growth Percent [8]: 95.49%
Growth Percent [9]: 105.84%
Growth Percent [10]: 82.56%
Growth Percent [11]: 106.18%
Growth Percent [12]: 100.88%
Growth Percent [13]: 101.09%
Growth Percent [14]: 103.92%
Growth Percent [15]: 93.01%
Growth Percent [16]: 82.69%
Growth Percent [17]: 108.52%
Growth Percent [18]: 108.34%
Growth Percent [19]: 89.27%
Growth Percent [20]: 103.28%
Growth Percent [21]: 73.76%
Growth Percent [22]: 92.46%
Growth Percent [23]: 106.56%
Growth Percent [24]: 102.06%
Growth Percent [25]: 103.62%
Growth Percent [26]: 102.08%
Growth Percent [27]: 90.55%
Growth Percent [28]: 97.41%
Growth Percent [29]: 89.81%
Growth Percent [30]: 102.44%
Growth Percent [31]: 89.97%
Growth Percent [32]: 108.72%
Growth Percent [33]: 98.30%
Growth Percent [34]: 94.07%
Growth Percent [35]: 107.75%
Growth Percent [36]: 87.15%
Growth Percent [37]: 89.65%

Source: article PMC11855478, “Bicyclic N,S-Acetals Containing Fused Cysteine-Amide System as New Heterocyclic Class Targeting Human Farnesyltransferase (FTase-h)” (International Journal of Molecular Sciences, 2025)
